Assay [1] has as its system TG, non-HDL-C, LDL-C, HDL-C, apo B, hsCRP. As to the kind of experiment: REDUCE-IT: fasting lipid, lipoprotein and inflammatory biomarkers over time. The format is in vivo, human. The following applies: Year 2; ITT. As to the method: Fasting Lipid Profile: The fasting lipid panel included: TG, TC, LDL-C, HDL-C, non-HDL-C, and VLDL-C. At all visits, LDL-C was calculated using the Friedewald equation. At Visit 1 and Visit 1.1 direct LDL-C were used if at the same visit TG >400 mg/dL (4.52 mmol/L). These LDL-C values were used for the evaluation of the LDL-C inclusion criterion (LDL-C qualifying measurements for randomization) and for the assessment of changes in the statin therapy when LDL-C was not at goal. […] In addition, irrespective of the TG levels, at Visit 2 (0 Months of Follow-up, baseline) and at Visit 4 (12 Months of Follow-up), LDL-C were measured by preparative ultracentrifugation. […] Hopkins LDL-C was calculated for each visit. […]
The fasting lipid panel was tested at Screening (Visit 1 or Visit 1.1), Randomization visit (Visit 2; Day 0), Visit 3 (Day 120; ˜4 Months) and all other follow-up visits including the last visit. For change from baseline to 1 year preparative ultracentrifugation measurements for LDL-C were analyzed, unless this value was missing. […] In addition, change from baseline to day 120 in LDL-C utilizing Friedewald's and Hopkins methods was analyzed, using the arithmetic mean of LDL-C obtained at Visit 2 (Day 0) and the preceding Visit 1 (or Visit 1.1). […] LDL-C according to Hopkins was calculated at each visit. […]

Assay [2] can be described thus: REDUCE-IT: blood pressure, repeated-measurements analysis of change from baseline. To be noted: 4 g per day; ITT; mixed effects model; exploratory. The format is in vivo, human. Here is the method: Blood pressure was measured using a standardized process: • Patient sat for […] with feet flat on the floor and measurement arm supported so that the midpoint of the manometer cuff was at heart level; and • Used a mercury sphygmomanometer or automatic blood pressure device with an appropriately sized cuff with the bladder centered over the brachial artery.
Blood pressure was recorded to the nearest 2 mmHg mark on the manometer or to the nearest whole number on an automatic device. A blood pressure reading was repeated 1 to 2 minutes later, and the second reading recorded to the nearest 2 mmHg mark.
It is contemplated that a number of factors contribute to the significant reduction in the cardiovascular risk. Without intending to be bound by any particular theory, one of the contributing factors might relate to the dose and formulation of the icosapent ethyl administered to the patients, in marked contrast to previous studies of omega-3 fatty acid studies. An additional contributing factor could relate to the patients' blood pressure. […] These differences appear to be modest, but it is contemplated, that they might contribute to the benefits of icosapent ethyl. […]

Consider `CC/C=C\C/C=C\C/C=C\C/C=C\C/C=C\CCCC(=O)OCC` [Icosapent Ethyl, eicosapentaenoic acid ethyl ester], for which the “Triglycerides median absolute change from baseline” value in assay [1] came out at 85 mg/dL. In assay [2], the “Average placebo-corrected reduction from baseline in diastolic blood pressure” value is listed as 0.5 mm Hg and the “Average placebo-corrected reduction from baseline in systolic blood pressure” value was found to be 1.3 mm Hg.
